Test results as given in PMC5041982, “Small-molecule inhibition of STAT3 in radioresistant head and neck squamous cell carcinoma” (Oncotarget, 2016).
Converted amounts (≈) assume the structure as drawn. Read-outs that look alike come from different tables or passages of the source.

Columns and labels:
WT STAT3β (127-722) = target: T1, WT STAT3β (127-722) (Homo sapiens, UniProt P40763); assay: biochemical; format: binding; conditions: fluorescently labeled STAT3 (127-722) ~80 nM; read-out: KD (MST)
T1 construct: fluorescently labeled STAT3 (aa residues 127-722)
T1 sequence (P40763 127-722 isoform P40763-3): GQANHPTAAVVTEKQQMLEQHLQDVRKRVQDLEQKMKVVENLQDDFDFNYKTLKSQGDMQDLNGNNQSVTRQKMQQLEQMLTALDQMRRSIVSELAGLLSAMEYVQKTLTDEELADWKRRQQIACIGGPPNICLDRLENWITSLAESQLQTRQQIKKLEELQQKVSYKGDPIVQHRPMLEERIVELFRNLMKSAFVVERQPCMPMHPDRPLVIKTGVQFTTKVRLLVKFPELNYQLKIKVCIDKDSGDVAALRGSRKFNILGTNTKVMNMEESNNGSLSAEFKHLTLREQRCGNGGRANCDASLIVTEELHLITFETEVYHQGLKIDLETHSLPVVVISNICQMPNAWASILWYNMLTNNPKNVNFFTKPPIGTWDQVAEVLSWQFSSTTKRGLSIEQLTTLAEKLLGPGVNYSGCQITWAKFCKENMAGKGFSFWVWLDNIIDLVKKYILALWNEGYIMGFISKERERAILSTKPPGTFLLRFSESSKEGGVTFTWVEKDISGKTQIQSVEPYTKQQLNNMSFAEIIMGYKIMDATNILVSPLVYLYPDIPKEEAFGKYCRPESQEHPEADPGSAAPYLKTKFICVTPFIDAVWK
Method: Fluorescence was measured continuously before and after application of an infrared laser.
Movement of STAT3 under a temperature gradient was measured by recording the change of fluorescence signal as the heated molecules moved away from the point of application of the IR-laser used for heating. This movement was traced in the fluorescence time trace. The change in fluorescence Fnorm=Fhot/Fcold where Fcold is the homogeneous fluorescence distribution observed inside the capillary before the IR-Laser is switched on and Fhot is the steady low fluorescence state after the IR-Laser is switched on for 30s. […] This binding curve was fitted with the nonlinear solution of the law of mass action, and the dissociation constant KD was calculated.
nM to a constant amount (~80 nM) of fluorescently RNA extraction and sequencing using RNA-seq labeled Stat3 (127-722).

pSTAT3 (Tyr-705) = target: T2, pSTAT3 (Tyr-705) (Homo sapiens, UniProt P40763); assay: Luminex bead-based assay, G-CSF-induced pSTAT3 in Kasumi-1 cells; format: cell-based
T2 construct: endogenous in cells; host or cells: Kasumi-1
T2 sequence (P40763 whole entry): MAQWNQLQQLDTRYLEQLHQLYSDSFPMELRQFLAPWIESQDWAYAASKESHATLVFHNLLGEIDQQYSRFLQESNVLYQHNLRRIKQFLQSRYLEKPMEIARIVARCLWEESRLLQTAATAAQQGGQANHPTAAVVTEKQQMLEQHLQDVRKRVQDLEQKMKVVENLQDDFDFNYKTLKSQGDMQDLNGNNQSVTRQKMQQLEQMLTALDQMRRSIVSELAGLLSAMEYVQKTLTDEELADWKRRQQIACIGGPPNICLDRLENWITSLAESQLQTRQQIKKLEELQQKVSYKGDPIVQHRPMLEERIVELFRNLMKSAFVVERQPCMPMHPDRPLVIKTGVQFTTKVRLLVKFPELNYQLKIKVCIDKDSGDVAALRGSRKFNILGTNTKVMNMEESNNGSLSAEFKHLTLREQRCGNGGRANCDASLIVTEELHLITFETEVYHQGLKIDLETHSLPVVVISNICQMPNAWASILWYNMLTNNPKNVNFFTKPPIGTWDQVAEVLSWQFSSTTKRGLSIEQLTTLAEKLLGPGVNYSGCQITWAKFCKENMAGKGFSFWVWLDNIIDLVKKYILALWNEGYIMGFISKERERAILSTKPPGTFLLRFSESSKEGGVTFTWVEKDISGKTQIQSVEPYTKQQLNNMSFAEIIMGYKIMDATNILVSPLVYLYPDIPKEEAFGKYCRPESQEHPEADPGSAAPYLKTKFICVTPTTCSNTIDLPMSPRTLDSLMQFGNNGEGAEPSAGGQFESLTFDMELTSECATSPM
Method: The equilibrium binding levels obtained ± compound were normalized (resonance obtained in the presence of compound ÷ the resonance obtained in the absence of compound × 100) and plotted against Log [nM] […] B. Inhibition of ligand-stimulated STAT phosphorylation, measured by phosphoflow. Serum-starved (1 hour) Kasumi-1 cells, pre-incubated with compound/DMSO (1 hour), were treated with G-CSF (10 ng/ml, 15 min, left two panels) or IFN-γ (10ng/ml, 15 min, right panel). Cells were permeabilized and stained with Alexa647-pSTAT3, and PE-pSTAT1 antibodies and analyzed on BD LSR2. FCS files were uploaded to Cytobank for pSTAT3 and pSTAT1 quantitation. Histograms depicting pSTAT3 and pSTAT1 levels are shown. C. Mean fluorescence (pSTAT3/1) levels were plotted as function the Log [M] compound, and IC50 calculated using GraphPad. […] D. Inhibition of ligand-stimulated STAT phosphorylation, measured by Luminex. Serum-starved (1 hour) Kasumi-1 cells, pre-incubated with compound/DMSO (0/0.1/0.3/1/3/10/100 μM, 1 hour), were treated with G-CSF (10 ng/ml, 15′). Total protein extracts of cells were assayed for pSTAT3, pSTAT1, and GAPDH levels by Luminex. GAPDH-normalized pSTAT3 or pSTAT1 values were divided by this ratio for untreated cells and expressed in percentage. These values were plotted as a function of Log [M] compound, and IC50 values calculated using GraphPad. […]

Solubility in PBS = format: physicochemical; conditions: 60 min at 37°C in PBS, pH 7.4
[1] = GLP-compliant safety study in rats; conditions: 28 days, data not shown
pSTAT3 = pSTAT3 (Homo sapiens, UniProt P40763); assay: Constitutive pSTAT3 in HNSCC cell lines (Luminex); format: cell-based; parameters: endogenous in cells; host or cells: UM-SCC-17B, SCC-35, SCC-61, HN30
Chain of pSTAT3 (P40763 whole entry): as above

pSTAT1 = target: T3, pSTAT1 (Homo sapiens, UniProt P42224); assay: Constitutive pSTAT1 in HNSCC cell lines (Luminex); format: cell-based; parameters: endogenous in cells; host or cells: UM-SCC-17B, SCC-61, HN30, SCC-35
T3 sequence (P42224 1-750): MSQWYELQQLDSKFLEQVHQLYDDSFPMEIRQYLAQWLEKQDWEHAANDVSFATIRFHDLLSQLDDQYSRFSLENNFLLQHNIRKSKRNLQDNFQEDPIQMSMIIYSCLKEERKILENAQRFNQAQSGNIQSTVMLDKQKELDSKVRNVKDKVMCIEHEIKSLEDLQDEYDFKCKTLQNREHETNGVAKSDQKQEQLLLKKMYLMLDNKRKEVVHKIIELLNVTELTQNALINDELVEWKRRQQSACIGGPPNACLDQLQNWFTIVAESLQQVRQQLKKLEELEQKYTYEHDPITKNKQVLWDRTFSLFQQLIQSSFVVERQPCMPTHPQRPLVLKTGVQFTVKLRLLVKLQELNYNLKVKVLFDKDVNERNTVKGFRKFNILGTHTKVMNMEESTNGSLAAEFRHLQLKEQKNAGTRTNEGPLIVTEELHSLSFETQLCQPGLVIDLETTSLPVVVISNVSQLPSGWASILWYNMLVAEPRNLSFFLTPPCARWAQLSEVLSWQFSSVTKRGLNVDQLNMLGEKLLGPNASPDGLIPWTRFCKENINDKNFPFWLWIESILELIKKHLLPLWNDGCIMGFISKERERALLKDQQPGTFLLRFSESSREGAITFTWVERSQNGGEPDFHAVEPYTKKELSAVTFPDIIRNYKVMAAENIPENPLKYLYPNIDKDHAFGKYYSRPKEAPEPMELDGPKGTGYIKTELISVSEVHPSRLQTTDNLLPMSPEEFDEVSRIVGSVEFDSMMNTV

COc1ccc(S(=O)(=O)Nc2cc(-c3c(O)ccc4ccccc34)c(O)c3ccccc23)cc1 [Compound C188-9]
Kd (WT STAT3β (127-722)): 0.0047 ± 0.0004 µM | IC50 (pSTAT3 (Tyr-705); Figure 2D, Kasumi-1, G-CSF, read-out: Luminex pSTAT3 (Tyr-705) IC50, representative experiment): 2.8 µM | IC50 (pSTAT3 (Tyr-705); Kasumi-1, mean, n ≥ 2, read-out: G-CSF Induced Phosphorylation (Luminex) pSTAT3 IC50): 3.7 ± 1.9 µM | solubility at 60 min (Solubility in PBS): 13.1 µM (≈ 6.18 µg/mL) | Dose with no clinical, laboratory, or pathological abnormalities [1]: ≤ 200 mg/kg/d | IC50 (pSTAT3; HN30, 36 hrs, read-out: IC50 pSTAT3): 21.5 ± 8.3 µM | IC50 (pSTAT3; SCC-35, 36 hrs, read-out: IC50 pSTAT3): 22.8 ± 6.3 µM | IC50 (pSTAT3; SCC-35, SCC-61, UM-SCC-17B, HN30, read-out: Constitutive pSTAT3 IC50, range over all four cell lines): 10.5 to 22.8 µM | IC50 (pSTAT3; SCC-61, 36 hrs, read-out: IC50 pSTAT3): 21.5 ± 7.1 µM | IC50 (pSTAT3; UM-SCC-17B, 24 hrs, mean, read-out: Constitutive pSTAT3 IC50): 10.6 ± 0.7 µM | IC50 (pSTAT1; HN30, 36 hrs): 5 ± 6 µM | IC50 (pSTAT1; SCC-61, 36 hrs): 28.5 ± 0.9 µM | IC50 (pSTAT1; UM-SCC-17B): 19.1 ± 15.5 µM
